Test results taken from US9597407B2, “Targeted antimicrobial moieties” (C3 Jian, Inc., priority 2009, dated 2017).
Entries after “also recorded” stand apart in the source; their conditions may differ.

System: bacteria
Test: Binding of targeting peptides to microorganisms (Table 3)
Conditions: microorganism bound by the targeting peptide; binding in aqueous buffers chosen by peptide solubility, preferably 1x PBS

Substance	Target(s)
PF-213 (MTTGVDFIIEKV; Peptide with targeting and/or antimicrobial activity)	S. epidermidis
PF-244 (HMRTISYLLAFAKFSLFIPPKQSLKRL; Peptide with targeting and/or antimicrobial activity)	S. epidermidis; also recorded: M. luteus; also recorded: P. aeruginosa; also recorded: A. baumannii
PF-338 (KGTSCPDQLSKAIRQSI; Peptide with targeting and/or antimicrobial activity)	S. mutans
PF-340 (VKDVLLELFNKIIGA; Peptide with targeting and/or antimicrobial activity)	S. mutans; also recorded: E. coli
PF-299 (LATKLKYEKEHKKM; Peptide with targeting and/or antimicrobial activity)	B. subtilis
PF-337 (YMTKKLVEMAERQMAGK; Peptide with targeting and/or antimicrobial activity)	S. epidermidis

Same assay, conditions: microorganism the targeting peptide binds; binding in aqueous buffers that varied with peptide solubility, preferably 1x PBS

Substance	Target(s)
1T-294 (YDKIADGVFKIGKRGVL; Peptide with targeting and/or antimicrobial activity) [Peptide 1T-294]	T. denticola
1T-215 (VCFKDISVFLSPFRGQEVLFCGKAKHSLIYVIGT; Peptide with targeting and/or antimicrobial activity) [Peptide 1T-215]	S. sanguinis
1T-217 (MLSNVLSRSVVSPNVDIPNSMVILSPLLISISNYH; Peptide with targeting and/or antimicrobial activity) [Peptide 1T-217]	F. nucleatum; also recorded: S. sanguinis
1T-188 (HRKDVYKK; Peptide with targeting and/or antimicrobial activity) [Peptide 1T-188]	S. sanguinis
1T-216 (FFLNVIAIRIPHF; Peptide with targeting and/or antimicrobial activity) [Peptide 1T-216]	S. sanguinis
1T-248 (IGGALNSCG; Peptide with targeting and/or antimicrobial activity) [Peptide 1T-248]	S. sanguinis
1T-266 (RAGTWLVVDEIR; Peptide with targeting and/or antimicrobial activity) [Peptide 1T-266]	S. sanguinis
1T-207 (SPLEKYGTGSMTALTFLLGCCLLVLSKKSR; Peptide with targeting and/or antimicrobial activity) [Peptide 1T-207]	F. nucleatum; also recorded: S. sanguinis

Same assay, conditions: peptide binding in aqueous buffers that varied depending on peptide solubility; preferably 1x PBS

Substance	Target(s) (microorganisms bound by the targeting peptide)	Target(s) (microorganism bound by the targeting peptide)
PF-495 (KGIYKKRTY; Peptide with targeting and/or antimicrobial activity)	S. mutans; also recorded: E. coli	
PF-786 (LSERERRRLKRGII; Peptide with targeting and/or antimicrobial activity)		Mycobacteria spp.
PF-765 (YLYWEVEHKPIIAKRDAYYAQLRKQKEIEEGA; Peptide with targeting and/or antimicrobial activity)		S. epidermidis and M. luteus and E. coli and MRSA and E. faecalis and C. jeikeium
PF-C285 (FTIIELKKQKIKHGENNKKTAHPLNEPFCARA; Peptide with targeting and/or antimicrobial activity)		A. naeslundii; also recorded: F. nucleatum; also recorded: P. gingivalis; also recorded: S. mutans; also recorded: T. denticola
PF-798 (ALHSKGIKVMADWVPDQMYA; Peptide with targeting and/or antimicrobial activity)		S. mutans
PF-504 (ILSVELSTKTSASGS; Peptide with targeting and/or antimicrobial activity)	S. mutans; also recorded: E. coli	
PF-732 (DRPSQTTHHTLSSSRITGPS; Peptide with targeting and/or antimicrobial activity)		E. coli
PF-487 (MYKAIAVLAMTIMAFFIFVYPFFIVGLILG; Peptide with targeting and/or antimicrobial activity)	S. mutans; also recorded: E. coli	
PF-707 (IDPESIVTTNNKQDNVDEQ; Peptide with targeting and/or antimicrobial activity)		S. mutans; also recorded: E. coli

Same assay, conditions: peptide binding in aqueous buffers varied by peptide solubility; preferably 1x PBS

Substance	Target(s) (microorganism bound by the targeting peptide)
1T-57 (RLEYRRLETQVEENPESGRRPMRG; Peptide with targeting and/or antimicrobial activity) [Peptide 1T-57]	P. aeruginosa
1T-177 (GTNVPTQILGYSREERFDYEPAPEQR; Peptide with targeting and/or antimicrobial activity) [Peptide 1T-177]	P. gingivalis; also recorded: S. gordonii; also recorded: S. mitis; also recorded: S. mutans; also recorded: S. oralis; also recorded: S. salivarious; also recorded: S. sanguinis
1T-31 (NATGTDIGEVTLTLGRFS; Peptide with targeting and/or antimicrobial activity) [Peptide 1T-31]	S. mutans; also recorded: P. aeruginosa
1T-73 (GWWEELLHETILSKFKITKALELPIQL; Peptide with targeting and/or antimicrobial activity) [Peptide 1T-73]	S. pneumoniae
1T-124 (LFDERNKIA; Peptide with targeting and/or antimicrobial activity) [Peptide 1T-124]	S. mitis; also recorded: S. mutans; also recorded: S. oralis
1T-67 (GQRQRLTCGRVSGCSEGPSREAAR; Peptide with targeting and/or antimicrobial activity) [Peptide 1T-67]	S. aureus; also recorded: S. epidermidis; also recorded: C. jeikeium; also recorded: C. xerosis; also recorded: C. striatum; also recorded: P. aeruginosa
1T-141 (KKFIILLFILVQGLIFSATKTLSDIIAL; Peptide with targeting and/or antimicrobial activity) [Peptide 1T-141]	F. nucleatum; also recorded: P. gingivalis; also recorded: S. epidermidis; also recorded: S. gordonii; also recorded: S. mitis; also recorded: S. mutans; also recorded: S. oralis; also recorded: S. sanguinis
1T-121 (FAKETGFGIGGAQEGWWIIADIYGPNPF; Peptide with targeting and/or antimicrobial activity) [Peptide 1T-121]	S. gordonii; also recorded: S. mitis; also recorded: S. mutans; also recorded: S. oralis; also recorded: S. salivarious; also recorded: S. sanguinis
1T-82 (FGVGVGIALFMAGYAIGKDLRKKFGKSC; Peptide with targeting and/or antimicrobial activity) [Peptide 1T-82]	S. pneumoniae
1T-25 (VGLDVSVLVLFFGLQLLSVLLGAMIR; Peptide with targeting and/or antimicrobial activity) [Peptide 1T-25]	S. aureus; also recorded: S. epidermidis; also recorded: C. xerosis; also recorded: C. striatum; also recorded: P. aeruginosa
1T-17 (NNAIVYIS; Peptide with targeting and/or antimicrobial activity) [Peptide 1T-17]	S. mutans
